Laboratory results reported in the supplement of paper PMC10307832.

Key:
Experiment in all cases: relative viability (nuclei count vs DMSO), 5 days (fraction); higher = more cells survive
[1] = compound: C1CSC2=C(C(=O)N1)SC3=C2C=C(C=C3)O [kb NB 142-70] + COc1cccc2cc(-c3nc([C@H]4CC[C@H](C(=O)O)CC4)n4ncnc(N)c34)[nH]c12 [OSI-027] (partner 0.5 µM)
Summary of the method: (§1)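 Lung cancer cell lines were seeded in 1536-well plates and dosed by pin tool the next day, with either a single drug or a fixed anchor-drug dose combined with five library-drug doses (not always all listed) spaced in √10 steps. Five days later, one step fixed the cells and stained their nuclei (final 0.05% Triton X-100, 1% formaldehyde, 1 ug/ml Hoechst), and nuclei were counted on 4× images. Relative viability is the nuclei count in treated wells divided by the count in vehicle wells, and each value is the median of duplicate plates.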

[2] = compound: NCC(=O)Nc1ccc(-n2nc(C(F)(F)F)cc2-c2ccc3c(ccc4ccccc43)c2)cc1 + CC(=O)c1c(C)c2cnc(Nc3ccc(N4CCNCC4)cn3)nc2n(C2CCCC2)c1=O [Palbociclib] (partner 0.5 µM)
Summary of the method: as §1

[3] = compound: NCC(=O)Nc1ccc(-n2nc(C(F)(F)F)cc2-c2ccc3c(ccc4ccccc43)c2)cc1 + CC(C)C[C@H](NC(=O)[C@H](Cc1ccccc1)NC(=O)c1cnccn1)B(O)O [Bortezomib] (partner 0.002 µM)
Summary of the method: as §1

[4] = compound: NCC(=O)Nc1ccc(-n2nc(C(F)(F)F)cc2-c2ccc3c(ccc4ccccc43)c2)cc1 + CS(=O)(=O)CCNCc1ccc(-c2ccc3ncnc(Nc4ccc(OCc5cccc(F)c5)c(Cl)c4)c3c2)o1 [Lapatinib] (partner 2 µM)
Summary of the method: as §1

Row | Cell Line | relative viability ([1]; first compound 0.1 µM) | relative viability ([1]; first compound 1 µM) | relative viability ([1]; first compound 3.162 µM) | relative viability ([2]; first compound 0.02 µM) | relative viability ([2]; first compound 0.06325 µM) | relative viability ([2]; first compound 0.2 µM) | relative viability ([2]; first compound 0.6325 µM) | relative viability ([2]; first compound 2 µM) | relative viability ([3]; first compound 0.02 µM) | relative viability ([3]; first compound 0.06325 µM) | relative viability ([3]; first compound 0.2 µM) | relative viability ([3]; first compound 0.6325 µM) | relative viability ([3]; first compound 2 µM) | relative viability ([4]; first compound 0.02 µM) | relative viability ([4]; first compound 0.06325 µM) | relative viability ([4]; first compound 0.2 µM) | relative viability ([4]; first compound 0.6325 µM) | relative viability ([4]; first compound 2 µM)
1 | NCI-H1993 | 0.51 | 0.578 | 0.479 | 0.658 | 0.599 | 0.808 | 0.696 | 0.706 | 1.1 | 1.28 | 1.08 | 1.15 | 1.21 | 0.754 | 0.707 | 0.859 | 0.909 | 0.901
2 | NCI-H322M | 0.489 | 0.551 | 0.498 | 0.51 | 0.502 | 0.388 | 0.505 | 0.493 | 1.41 | 1.29 | 1.15 | 1.18 | 1.14 | 0.617 | 0.62 | 0.681 | 0.561 | 0.558
3 | NCI-H838 | 0.369 | 0.386 | 0.331 | 0.228 | 0.237 | 0.224 | 0.192 | 0.213 | 0.81 | 0.788 | 1.06 | 0.746 | 0.727 | 0.934 | 0.893 | 0.974 | 0.778 | 0.576
4 | HARA | 0.57 | 0.479 | 0.234 | 0.258 | 0.173 | 0.287 | 0.294 | 0.256 | 1.09 | 1.05 | 1.22 | 1.12 | 1.25 | 0.649 | 0.801 | 0.829 | 0.822 | 0.989
5 | NCI-H2087 | 0.532 | 0.677 | 0.35 | 0.256 | 0.278 | 0.262 | 0.249 | 0.24 | 0.818 | 0.743 | 0.621 | 0.649 | 0.896 | 1.02 | 0.988 | 1.02 | 1.11 | 1.15
6 | NCI-H1437 | 0.908 | 0.968 | 0.921 | 0.331 | 0.328 | 0.3 | 0.341 | 0.307 | 0.531 | 0.422 | 0.536 | 0.487 | 0.499 | 0.768 | 0.76 | 0.751 | 0.84 | 0.78
7 | NCI-H1792 | 0.705 | 0.684 | 0.912 | 0.651 |  | 0.696 | 0.591 | 0.66 | 1.02 | 0.974 | 0.932 | 0.946 | 0.966 | 1 | 0.948 | 0.918 | 0.933 | 0.857
8 | NCI-H650 | 0.535 | 0.519 | 0.52 | 0.377 | 0.315 | 0.329 | 0.358 | 0.296 | 0.663 | 1.02 | 0.931 | 0.677 | 0.907 | 0.665 | 1.06 | 0.934 | 0.87 | 1.25
9 | COR-L23 | 0.797 | 0.728 | 0.279 | 0.297 | 0.293 | 0.346 | 0.261 | 0.245 | 1.05 | 0.944 | 0.962 | 0.978 | 0.737 | 0.97 | 0.997 | 1.2 | 0.938 | 0.659
10 | COR-L 105 | 0.821 | 0.734 | 0.674 | 0.4 | 0.399 | 0.411 | 0.413 | 0.432 | 0.73 | 0.917 | 0.744 | 0.703 | 1.03 | 0.418 | 0.33 | 0.401 | 0.39 | 0.437
11 | 201T | 0.723 | 0.714 | 0.653 | 0.342 | 0.374 | 0.366 | 0.363 | 0.351 | 1.04 | 1.18 | 1.03 | 1.17 | 1.09 | 1.04 | 1.07 | 0.996 | 1.08 | 1.04
12 | HCC-44 | 0.701 | 0.439 | 0.685 | 1.04 | 0.961 | 0.994 | 0.977 | 0.962 | 0.968 | 0.872 | 0.946 | 0.875 | 0.87 | 1.02 | 1.16 | 0.974 | 1.03 | 1.05
13 | H3255 | 0.606 | 0.603 | 0.554 | 0.35 | 0.313 | 0.314 | 0.322 | 0.304 | 0.87 | 1.12 | 0.846 | 0.791 | 0.876 | 0.276 | 0.268 | 0.231 | 0.258 | 0.268
14 | NCI-H647 | 0.575 | 0.568 | 0.601 | 0.431 | 0.385 | 0.564 | 0.294 | 0.402 | 1.14 | 1.18 | 1.09 | 1.04 | 0.99 | 1.2 | 1.07 | 1.21 | 0.953 | 0.631
15 | NCI-H2023 | 0.485 | 0.417 | 0.258 | 0.461 | 0.414 | 0.391 | 0.345 | 0.297 | 0.993 | 1.13 | 0.724 | 0.932 | 0.904 | 0.747 | 1.2 | 0.476 | 0.838 | 0.74
16 | NCI-H23 | 0.632 | 0.572 | 0.412 | 0.493 | 0.548 | 0.535 | 0.507 | 0.553 | 0.908 | 1.11 | 1.1 | 1.02 | 1.12 | 1.18 | 0.96 | 1.12 | 1.12 | 0.955
17 | NCI-H520 | 0.262 | 0.226 | 0.25 | 0.222 | 0.224 | 0.24 | 0.193 | 0.258 | 0.646 | 0.568 | 1.05 | 0.671 | 0.789 | 0.995 | 0.869 | 0.935 | 0.938 | 0.963
18 | NCI-H460 | 0.677 | 0.576 | 0.315 | 0.143 | 0.2 | 0.251 | 0.171 | 0.2 | 1.21 | 1.11 | 1.07 | 1.03 | 1.07 | 0.965 | 0.956 | 0.991 | 0.845 | 0.576
